In brackets after ≈: the same amount, converted by molar mass.
Experiments:
[1] = Antioxidant activity assessed as DPPH free radical scavenging activity; type: functional
RAW264.7 = assay: Anti-inflammatory activity in mouse RAW264.7 cells assessed as inhibition of LPS/IFN-gamma-induced nitric oxide production preincubated for 24 hrs followed by LPS/IFN-gamma-stimulation and measured after 17 hrs by Griess assay; type: functional, cell-based
U-266 = assay: Cytotoxicity against human U266 cells assessed as reduction in cell viability; type: functional, cell-based
MM1.S = assay: Cytotoxicity against human MM1S cells assessed as reduction in cell viability; type: functional, cell-based
[2] = Cytotoxicity against human […] cells assessed as reduction in cell viability; type: functional, cell-based
A549 = assay: Cytotoxicity against human A549 cells assessed as reduction in cell viability after 24 hrs by MTT assay; type: functional, cell-based; details: A549, 24 h
HeLa = assay: Cytotoxicity against human HeLa cells assessed as reduction in cell viability after 24 hrs by MTT assay; type: functional, cell-based
K562 [3] = assay: Cytotoxicity against human K562 cells assessed as reduction in cell viability after 24 hrs by MTT assay; type: functional, cell-based; details: K562, 24 h
THP-1 = assay: Cytotoxicity against human THP1 cells assessed as reduction in cell viability after 24 hrs by MTT assay; type: functional, cell-based; details: THP-1, 24 h
L02 = assay: Cytotoxicity against human LO2 cells assessed as reduction in cell viability after 24 hrs by MTT assay; type: cell-based; details: L02, 24 h
HepG2 = assay: Cytotoxicity against human HepG2 cells assessed as reduction in cell viability after 24 hrs by MTT assay; type: functional, cell-based; details: HepG2, 24 h
SGC-7901 = assay: Cytotoxicity against human SGC7901 cells assessed as reduction in cell viability after 24 hrs by MTT assay; type: functional, cell-based; details: SGC-7901, 24 h
MCF7 = assay: Cytotoxicity against human MCF7 cells assessed as reduction in cell viability by MTT assay; type: functional, cell-based
MDA-MB-231 = assay: Antiproliferative activity against human MDA-MB-231 cells 24 to 48 hrs by MTT assay; type: functional, cell-based
SW480 = assay: Cytotoxicity against human SW480 cells assessed as reduction in cell viability after 24 to 48 hrs by MTT assay; type: functional, cell-based
[4] = Inhibition of NFkappaB (unknown origin); set-up: species or system Homo sapiens
[5] = Antioxidant activity assessed as DPPH free radical scavenging activity after 30 mins; type: functional
LS174T [6] = assay: Cytotoxicity against human LS174T cells assessed as reduction in cell viability by SRB assay; type: functional, cell-based
HCT-15 = assay: Cytotoxicity against human HCT15 cells assessed as reduction in cell viability after 48 hrs by SRB assay; type: functional, cell-based; details: HCT-15, 48 h
K562 [7] = assay: Cytotoxicity against human K562 cells assessed as reduction in cell viability after 48 hrs by SRB assay; type: functional, cell-based; details: K562, 48 h
PC-3 = assay: Cytotoxicity against human PC3 cells assessed as reduction in cell viability by MTT assay; type: functional, cell-based
MIA PaCa-2 = assay: Cytotoxicity against human MIAPaCa2 cells assessed as reduction in cell viability by MTT assay; type: functional, cell-based
PANC-1 = assay: Cytotoxicity against human PANC1 cells assessed as reduction in cell viability by MTT assay; type: functional, cell-based
Bacillus subtilis = assay: Antibacterial activity against Bacillus subtilis after 24 hrs by twofold serial dilution technique; type: functional
LS174T [8] = assay: Cytotoxicity against human LS174T cells assessed as reduction in cell viability in presence of PTX by SRB assay relative to control; type: functional
LS174T [9] = assay: Cytotoxicity against human LS174T cells assessed as reduction in cell viability in presence of PTX by SRB assay; type: functional, cell-based

For `COc1cc(/C=C/C(=O)C(=NNc2ccc(C)cc2)C(=O)/C=C/c2ccc(O)c(OC)c2)ccc1O`, which IC50 [1] is on record?
Its IC50 is 0.253 µg/mL (≈ 0.52 µM).

Which IC50 (RAW264.7) does the source give for `O=C(/C=C(O)/C=C/c1ccc(O)c(O)c1)c1ccccc1O` here?
The IC50 was 9.6 µM.

What does the source list for `COc1cc(/C=C/C(=O)C(=Cc2ccc3c(c2)C(=O)N(C2CCC(=O)NC2=O)C3=O)C(=O)/C=C/c2ccc(O)c(OC)c2)ccc1O` (stereo not given)?
IC50 (U-266): 96 µM; IC50 (MM1.S): 6.44 µM; IC50 [2]: 4.55 µM

What does the source list for `COc1cc(/C=C/C(=O)/C=C/c2ccc3c(c2)C(=O)N(C2CCC(=O)NC2=O)C3=O)ccc1O` (stereo not given)?
IC50 (U-266): 2.33 µM; IC50 (MM1.S): 7.59 µM; IC50 [2]: 5.62 µM

For `O=C(/C=C(O)/C=C/c1ccc(O)c(O)c1)c1cc(Cl)ccc1O`, which IC50 (RAW264.7) is on record?
The IC50 was 4.9 µM.

With `O=C1/C(=C/c2cc(/N=C/c3ccc(O)c(O)c3O)ccc2F)CNC/C1=C\c1cc(/N=C/c2ccc(O)c(O)c2O)ccc1F` as the compound, how does the IC50 (A549) read?
The IC50 was < 2 µM.

And the IC50 (HeLa)?
Its IC50 is < 2 µM.

What about the IC50 (K562 [3]) of the same compound?
The IC50 was < 2 µM.

What about the IC50 (THP-1) of the same compound?
The IC50 was < 2 µM.

What about the IC50 (L02) of the same compound?
Its IC50 is < 2 µM.

And the IC50 (HepG2)?
Its IC50 is < 2 µM.

And the IC50 (SGC-7901)?
Its IC50 is < 2 µM.

With `CCOC(OCC)c1ccc(/C=C2\CN(C)C/C(=C\c3ccc(C(OCC)OCC)cc3)C2=NO)cc1` as the compound, how does the IC50 (MCF7) read?
Its IC50 is 0.03 µM.

For `CN1C/C(=C\c2cn(-c3ccccc3)nc2-c2ccccc2)C(=O)/C(=C/c2cn(-c3ccccc3)nc2-c2ccccc2)C1`, which IC50 (MDA-MB-231; mda-mb-231) is on record?
The IC50 was 20.5 ppm.

For `O=C1/C(=C/c2cn(-c3ccccc3)nc2-c2ccc([N+](=O)[O-])cc2)CCCC/C1=C\c1cn(-c2ccccc2)nc1-c1ccc([N+](=O)[O-])cc1`, which IC50 (MDA-MB-231; mda-mb-231) is on record?
The IC50 was 32.4 ppm.

For `COc1ccc(-c2nn(-c3ccccc3)cc2/C=C2\CCCC/C(=C\c3cn(-c4ccccc4)nc3-c3ccc(OC)cc3)C2=O)cc1`, which IC50 (MDA-MB-231; mda-mb-231) is on record?
Its IC50 is 75.8 ppm.

Which IC50 (SW480) does the source give for `O=C(/C=C/c1c[nH]c2ccccc12)CC(=O)/C=C/c1c[nH]c2ccccc12` here?
Its IC50 is 15 to 17 µM.

Which IC50 [4] does the source give for `C=CC(=O)NC(c1ccccc1)C(C(=O)/C=C/c1cccc(O)c1)C(=O)/C=C/c1cccc(O)c1` (stereo not given) here?
Its IC50 is 2.8 µg/mL (≈ 5.99 µM).

Which results are given for `COc1ccc(-c2nn(-c3ccccc3)cc2/C=C2\CN(C)C/C(=C\c3cn(-c4ccccc4)nc3-c3ccc(OC)cc3)C2=O)cc1`?
IC50 (MDA-MB-231; mda-mb-231): 39.9 ppm; IC50 [5]: 6400 µM

With `O=C1NC(/C=C/c2ccccc2)=NC/1=C\C=C\c1ccccc1` as the compound, how does the IC50 (LS174T [6]) read?
Its IC50 is 8.9 µM.

For `COc1cc(CCc2cc(CCc3ccc(OC(C)=O)c(OC)c3)on2)ccc1OC(C)=O`, which IC50 (HCT-15) is on record?
Its IC50 is 2.8 µM.

What about the IC50 (K562 [7]) of the same compound?
The IC50 was 3 µM.

For `O=C(/C=C/c1cn(-c2ccccc2)nc1-c1ccc([N+](=O)[O-])cc1)/C=C/c1cn(-c2ccccc2)nc1-c1ccc([N+](=O)[O-])cc1`, which IC50 (MDA-MB-231; mda-mb-231) is on record?
The IC50 was 50.4 ppm.

Which IC50 (PC-3) does the source give for `CN1C/C(=C\c2ccc(N(C)C)cc2[N+](=O)[O-])C(=NO)/C(=C/c2ccc(N(C)C)cc2[N+](=O)[O-])C1` here?
The IC50 was 0.02 µM.

And the IC50 (MIA PaCa-2)?
Its IC50 is 0.02 µM.

What about the IC50 (MCF7) of the same compound?
Its IC50 is 0.02 µM.

What about the IC50 (PANC-1) of the same compound?
Its IC50 is 0.02 µM.

Which MIC (Bacillus subtilis) does the source give for `CCN1N=C(C(=NNc2ccccc2)C2=NN(CC)C(c3ccc(O)c(OC)c3)C2)CC1c1ccc(O)c(OC)c1` (stereo not given) here?
Its MIC is 3.12 µg/mL (≈ 5.61 µM).

With `O=C1/C(=C/c2cn(-c3ccccc3)nc2-c2ccccc2)CN(Cc2ccccc2)C/C1=C\c1cn(-c2ccccc2)nc1-c1ccccc1` as the compound, how does the IC50 (MDA-MB-231; mda-mb-231) read?
The IC50 was 45.1 ppm.

With `O=C1/C(=C/c2cn(-c3ccccc3)nc2-c2ccccc2)CCCC/C1=C\c1cn(-c2ccccc2)nc1-c1ccccc1` as the compound, how does the IC50 (MDA-MB-231; Homo sapiens, MDA-MB-231) read?
Its IC50 is 11.6 µM.

With `O=C1/C(=C/c2cn(-c3ccccc3)nc2-c2ccccc2)CNC/C1=C\c1cn(-c2ccccc2)nc1-c1ccccc1` as the compound, how does the IC50 [5] read?
Its IC50 is 10500 µM.

For `COc1cc(/C=C/C=C2N=C(/C=C/c3ccccc3)NC\2=O)ccc1O`, which Activity (LS174T [8]) is on record?
The Activity was 2.5 - 45.7%.

What about the IC50 (LS174T [6]) of the same compound?
The IC50 was 7.6 µM.

Which Activity (LS174T [8]) does the source give for `CCCNC(=O)/C(=C/C=C/c1ccccc1)NC(=O)/C=C/c1ccccc1` here?
Its Activity is 16.2%.

What about the IC50 (LS174T [9]) of the same compound?
Its IC50 is 0.0038 µM.

— ChEMBL document CHEMBL4414572, “Curcumin analogues and their hybrid molecules as multifunctional drugs” (Eur J Med Chem, 2019)
